For this assay, the system named is phosphorylation of AKT in HCC70 cells. As to the kind of experiment: Cellular assay: phosphorylation of AKT in HCC70 cells (western blotting). It is filed as cell-based. The following applies: Homo sapiens, HCC70, 1 h, HCC70 cells, compound 500 nM, 60 min, inhibition of Akt activity from band intensities. The method, then: Cellular activity of PI3Kβ inhibitors was determined by quantifying the phosphorylation of AKT in HCC70 cells. AKT phosphorylated at Ser473 and Thr308 were measured using western blotting and specific primary antibodies from Cell Signaling (CST), Danvers, MA. On day 1, HCC70 cells (ATCC #CRL-2315) were seeded into Falcon 12-well cell Culture Plate (Corning #353043) at 100,000 cells per well, in 1 ml complete culture medium (RPMI-1640, GIBCO #11875093) containing 10% heat inactivated FBS (GIBCO #10438026), 1% Pen-Strep (GIBCO #15140122) and incubated at 37° AC, 5% CO2 overnight. On day 2, compound (500 nM) or DMSO (0.1%, Sigma Aldrich #8418) was added and cells were further incubated for 60 min at 37° AC, 5% CO2 in a total volume of 1 ml fresh medium.
At the end of the cell treatment period, media were removed by aspiration and adherent cells were lysed in 100 uL RIPA buffer (Sigma Aldrich #R0278). Equal volume (15 uL) of proteins was resolved by SDS-PAGE and transferred to PVDF (Millipore #IPFL00010) membrane for immunoblot analysis. Primary antibodies to the following proteins were used for immunoblotting: phosphor-AKT (Ser473) (CST #4060), phosphor-AKT (Thr308) (CST #2965), total AKT (CST #9272). Secondary goat anti-rabbit IgG fluorophore conjugated antibody (Invitrogen #A21109) was used to visualize the indicated proteins on an Odyssey CLx imaging system (Li-Cor). Quantification of band intensities was performed using Odyssey 3.0 software. Inhibition of Akt activity was calculated by band intensities using the formula: […]
Index was evaluated by % of AI. Data represent Index+(20˜60%), ++(60%˜80%), +++(80%˜90%), and ++++>90%.
On the technique in general: In western blotting, separated proteins are transferred to a membrane and probed.

Setting [1] is: read-out: Index of AI (HCC70) p-AKT Thr 308.
The mark [2] stands for this setting: read-out: Index of AI (HCC70) p-AKT ser 473.

Each structure is given as a SMILES string. Like-named read-outs stand apart in the source and are kept apart here.

On to `CN(C)C1CCN(C(=O)c2cc(CN3CCc4c(F)cc(F)cc43)c3oc(N4CCOCC4)cc(=O)c3c2)C1` (centres unmarked) [Compound 43, 8-((4,6-difluoroindolin-1-yl)methyl)-6-(3-(dimethylamino)pyrrolidine-1-carbonyl)-2-morpholino-4H-chromen-4-one], for which the inhibition at 0.5 µM runs as follows: under setting [1], 80 to 90%; under setting [2], 80 to 90%.

In the case of `O=C(c1cc(CN2CCc3c(F)cc(F)cc32)c2oc(N3CCOCC3)cc(=O)c2c1)N1CCC1` [Compound 45, 6-(azetidine-1-carbonyl)-8-((4,6-difluoroindolin-1-yl)methyl)-2-morpholino-4H-chromen-4-one], the inhibition at 0.5 µM reads like this: under setting [1], over 90%; under setting [2], over 90%.

Take `CN(C)C1CN(C(=O)c2cc(CN3CCc4c(F)cc(F)cc43)c3oc(N4CCOCC4)cc(=O)c3c2)C1` [Compound 46, 8-((4,6-difluoroindolin-1-yl)methyl)-6-(3-(dimethylamino)azetidine-1-carbonyl)-2-morpholino-4H-chromen-4-one]: the inhibition at 0.5 µM under setting [1] was in the range of 80 to 90% and the inhibition at 0.5 µM under setting [2] was 80 to 90%.

In the case of `CC(Nc1cc(F)cc(F)c1)c1cc(NC2=NC(C)(C)CO2)cn2c(=O)cc(N3CCOCC3)nc12` (centres unmarked) [Compound 47, 9-(1-((3,5-difluorophenyl)amino)ethyl)-7-((4,4-dimethyl-4,5-dihydrooxazol-2-yl)amino)-2-morpholino-4H-pyrido[1,2-a]pyrimidin-4-one], the inhibition at 0.5 µM under setting [1] was over 90% and the inhibition at 0.5 µM under setting [2] was over 90%.

For `Cc1cc(CN2CCc3c(F)cccc32)c2nc(N3CCOCC3)cc(=O)n2c1` [Compound 52, 9-[(4-fluoroindolin-1-yl)methyl]-7-methyl-2-morpholino-pyrido[1,2-a]pyrimidin-4-one], the inhibition at 0.5 µM lay in the range of 60 to 80% under setting [1] and 60 to 80% under setting [2].

In the case of `Cc1cc(CN2c3cccc(F)c3CC2C)c2nc(N3CCOCC3)cc(=O)n2c1` (centres unmarked) [Compound 53, 9-((4-fluoro-2-methylindolin-1-yl)methyl)-7-methyl-2-morpholino-4H-pyrido[1,2-a]pyrimidin-4-one], the inhibition at 0.5 µM fell in the range of 60 to 80% under setting [1] and 60 to 80% under setting [2].

Turning to `Cc1cc(CN2CCc3c(F)cc(F)cc32)c2nc(N3CCOCC3)cc(=O)n2c1` [Compound 54, 9-((4,6-difluoroindolin-1-yl)methyl)-7-methyl-2-morpholino-4H-pyrido[1,2-a]pyrimidin-4-one], the inhibition at 0.5 µM is 20 to 60% under setting [1] and 20 to 60% under setting [2].

`Cc1cc(CN2c3cc(F)cc(F)c3CC2C)c2nc(N3CCOCC3)cc(=O)n2c1` (centres unmarked) [Compound 55, 9-((4,6-difluoro-2-methylindolin-1-yl)methyl)-7-methyl-2-morpholino-4H-pyrido[1,2-a]pyrimidin-4-one]: the inhibition at 0.5 µM lay within 20 to 60% under setting [1] and 20 to 60% under setting [2].

Consider `Cc1cc(CN2CCc3cc(F)ccc32)c2nc(N3CCOCC3)cc(=O)n2c1` [Compound 56, 9-((5-fluoroindolin-1-yl)methyl)-7-methyl-2-morpholino-4H-pyrido[1,2-a]pyrimidin-4-one], for which the inhibition at 0.5 µM by setting is: under setting [1], 60 to 80%; under setting [2], 60 to 80%.

Turning to `Cc1cc(CN2c3ccccc3CC2C)c2nc(N3CCOCC3)cc(=O)n2c1` (centres unmarked) [Compound 57, 7-methyl-9-((2-methylindolin-1-yl)methyl)-2-morpholino-4H-pyrido[1,2-a]pyrimidin-4-one], the inhibition at 0.5 µM lay in the range of 60 to 80% under setting [1] and 60 to 80% under setting [2].

In the case of `CC(Nc1cc(F)cc(F)c1)c1cc(Cc2nnc[nH]2)cc2c(=O)cc(N3CCOCC3)oc12` (centres unmarked) [Compound 60, 6-((4H-1,2,4-triazol-3-yl)methyl)-8-(1-((3,5-difluorophenyl)amino)ethyl)-2-morpholino-4H-chromen-4-one], the inhibition at 0.5 µM lay in the range of 80 to 90% under setting [1] and 80 to 90% under setting [2].

In the case of `CC(Nc1cc(F)cc(F)c1)c1cc(-c2c[nH][nH]c2=O)cc2c(=O)cc(N3CCOCC3)oc12` (centres unmarked) [Compound 61, 4-(8-(1-((3,5-difluorophenyl)amino)ethyl)-2-morpholino-4-oxo-4H-chromen-6-yl)-1H-pyrazol-3(2H)-one], the inhibition at 0.5 µM runs as follows: under setting [1], 20 to 60%; under setting [2], 20 to 60%.

For `CN(C)C(=O)c1cc(CN2CCc3c(F)ccc(Cl)c32)c2oc(N3CCOCC3)cc(=O)c2c1` [Compound 62, 8-((7-chloro-4-fluoroindolin-1-yl)methyl)-N,N-dimethyl-2-morpholino-4-oxo-4H-chromene-6-carboxamide], the inhibition at 0.5 µM lay in the range of 80 to 90% under setting [1] and 80 to 90% under setting [2].

Regarding `CC1Cc2c(F)cc(F)cc2N1Cc1cc(C(=O)N(C)C)cc2c(=O)cc(N3CCOCC3)oc12` (centres unmarked) [Compound 63, 8-((4,6-difluoro-2-methylindolin-1-yl)methyl)-N,N-dimethyl-2-morpholino-4-oxo-4H-chromene-6-carboxamide], the inhibition at 0.5 µM by setting is: under setting [1], over 90%; under setting [2], over 90%.

Turning to `CN(C)C(=O)c1cc(CN2c3cc(F)cc(F)c3CC2(C)C)c2oc(N3CCOCC3)cc(=O)c2c1` [Compound 66, 8-((4,6-difluoro-2,2-dimethylindolin-1-yl)methyl)-N,N-dimethyl-2-morpholino-4-oxo-4H-chromene-6-carboxamide], the inhibition at 0.5 µM reads like this: under setting [1], 80 to 90%; under setting [2], 80 to 90%.

As for `CN(C)C(=O)c1cc(CN2CCc3ccccc32)c2oc(N3CCOCC3)cc(=O)c2c1` [Compound 67, 8-(indolin-1-ylmethyl)-N,N-dimethyl-2-morpholino-4-oxo-4H-chromene-6-carboxamide], the inhibition at 0.5 µM is, setting by setting: under setting [1], 60 to 80%; under setting [2], 60 to 80%.

Take `CN(C)C(=O)c1cc(CN2CCc3c(F)cccc32)c2oc(N3CCOCC3)cc(=O)c2c1` [Compound 68, 8-((4-fluoroindolin-1-yl)methyl)-N,N-dimethyl-2-morpholino-4-oxo-4H-chromene-6-carboxamide]: the inhibition at 0.5 µM was over 90% under setting [1] and over 90% under setting [2].

Regarding `CN(C)C(=O)c1cc(CN2CCc3ccc(F)cc32)c2oc(N3CCOCC3)cc(=O)c2c1` [Compound 70, 8-((6-fluoroindolin-1-yl)methyl)-N,N-dimethyl-2-morpholino-4-oxo-4H-chromene-6-carboxamide], the inhibition at 0.5 µM by setting is: under setting [1], 80 to 90%; under setting [2], 80 to 90%.

On to `CN(C)C(=O)c1cc(CN2CCc3c(Cl)cccc32)c2oc(N3CCOCC3)cc(=O)c2c1` [Compound 71, 8-((4-chloroindolin-1-yl)methyl)-N,N-dimethyl-2-morpholino-4-oxo-4H-chromene-6-carboxamide], for which the inhibition at 0.5 µM by setting is: under setting [1], over 90%; under setting [2], over 90%.

Regarding `COc1cccc2c1N(Cc1cc(C(=O)N(C)C)cc3c(=O)cc(N4CCOCC4)oc13)CC2` [Compound 72, 8-((7-methoxyindolin-1-yl)methyl)-N,N-dimethyl-2-morpholino-4-oxo-4H-chromene-6-carboxamide], the inhibition at 0.5 µM reads like this: under setting [1], 20 to 60%; under setting [2], 20 to 60%.

Consider `CCN(CC)C(=O)c1cc(CN2CCc3c(F)cc(F)cc32)c2oc(N3CCOCC3)cc(=O)c2c1` [Compound 78, 8-((4,6-difluoroindolin-1-yl)methyl)-N,N-diethyl-2-morpholino-4-oxo-4H-chromene-6-carboxamide], for which the inhibition at 0.5 µM runs as follows: under setting [1], 80 to 90%; under setting [2], 80 to 90%.

With `CCN(C)C(=O)c1cc(CN2CCc3c(F)cc(F)cc32)c2oc(N3CCOCC3)cc(=O)c2c1` [Compound 79, 8-((4,6-difluoroindolin-1-yl)methyl)-N-ethyl-N-methyl-2-morpholino-4-oxo-4H-chromene-6-carboxamide], the inhibition at 0.5 µM under setting [1] is 80 to 90% and the inhibition at 0.5 µM under setting [2] was in the range of 80 to 90%.

As to `CCNC(=O)c1cc(CN2CCc3c(F)cc(F)cc32)c2oc(N3CCOCC3)cc(=O)c2c1` [Compound 80, 8-((4,6-difluoroindolin-1-yl)methyl)-N-ethyl-2-morpholino-4-oxo-4H-chromene-6-carboxamide], the inhibition at 0.5 µM runs as follows: under setting [1], 60 to 80%; under setting [2], 60 to 80%.

As for `CC(C)NC(=O)c1cc(CN2CCc3c(F)cc(F)cc32)c2oc(N3CCOCC3)cc(=O)c2c1` [Compound 81, 8-((4,6-difluoroindolin-1-yl)methyl)-N-isopropyl-2-morpholino-4-oxo-4H-chromene-6-carboxamide], the inhibition at 0.5 µM was in the range of 60 to 80% under setting [1] and 60 to 80% under setting [2].

Regarding `CN1CCC(NC(=O)c2cc(CN3CCc4c(F)cc(F)cc43)c3oc(N4CCOCC4)cc(=O)c3c2)CC1` [Compound 82, 8-((4,6-difluoroindolin-1-yl)methyl)-N-(1-methylpiperidin-4-yl)-2-morpholino-4-oxo-4H-chromene-6-carboxamide], the inhibition at 0.5 µM under setting [1] was in the range of 80 to 90% and the inhibition at 0.5 µM under setting [2] was 80 to 90%.

The values above are taken from patent publication US20240166617A1, “PHOSPHOINOSITIDE 3 KINASE BETA INHIBITORS AND COMPOSITIONS AND METHODS THEREOF” (Geode Therapeutics Inc., priority 2021, published 2024).
